Assays:
human plasma [1] = test: Thrombin time (TT) in human plasma, anti-coagulant activity; type: biochemical; conditions: human plasma deficient in platelets, 2 min incubation at 37° C., Prest Thrombin
Procedure: (§1) Anti-coagulant Activity, Measurement of Thrombin Time and Activated […] Man In order to evaluate the anti-coagulant activity of the compounds of the invention, the thrombin time (TT) and the activated cephalin time (ACT) were determined in human plasma samples. An ST4 coagulometer (Diagnostica Stago, France) was used. A lyophilised plasma, deficient in platelets (Stago), is taken up in distilled water. The TT is obtained using the reagent Prest Thrombin and the ACT using the reagent PTT Automate […]. […] The activity of an antagonist is evaluated by its capacity to prolong the TT and the ACT relative to the control. The effect of the inhibitors is expressed by the concentration in μM that doubles the coagulation time (Ctt2).

human plasma [2] = test: Activated cephalin time (ACT) in human plasma, anti-coagulant activity; type: biochemical; conditions: human plasma deficient in platelets, 2 min incubation at 37° C., PTT Automate Cephalin
Procedure: as §1

human thrombin = target: T1, human thrombin (Homo sapiens, UniProt P00734); test: Inhibition of human thrombin (fibrin formation from purified human fibrinogen); type: biochemical; conditions: human thrombin 0.7 nM, human fibrinogen 4 mM, pH 7.4, 20° C., 10 min preincubation
T1 construct: purchased Sigma
Procedure: Inhibition of Thrombin and of Fibrinolysis Serine Proteases […] The fibrin formed by the thrombin or by the paranitroanilide released by the action of the serine protease is measured spectrophotometrically at 405 nm after from 15 to 30 minutes' reaction at 20° C.

dog plasma [3] = test: Anti-coagulant activity after administration per os to the dog, thrombin time (TT); type: in vivo; conditions: oral, 5 mg/kg
Procedure: (§2) Anti-coagulant Activity After Administration Per os to the Dog
(§3) Male or female dogs weighing 11-28 kg are treated by the oral route with the products of the invention (5 or 10 mg/kg). The coagulation times (TT, ACT) are determined in dog plasma samples 10 min. before and 30 min., 1 hour, 2 hours, 4 hours and 6 hours after administration of the products. The measurements of the coagulation times are carried out as described in Example 81.
(§4) Under the conditions of our experiments, the TT is of the order of 19 seconds and the ACT of the order of 18 seconds.
(§5) The Table 4 summarizes the results obtained.

dog plasma [4] = test: Anti-coagulant activity after administration per os to the dog, activated cephalin time (ACT); type: in vivo; conditions: oral, 5 mg/kg
Procedure: as §2, §3, §4, §5

Cl.Cl.N=C(N)c1ccc(CNC(=O)[C@]23C[C@H]2CCCN3C(=O)[C@H](N)C(c2ccccc2)c2ccccc2)cc1 [Example 61, 1-[(2R)-3,3-Diphenylalanyl]-N-(4-amidinobenzyl)-(2S,3R)-2,3-methano-homoprolinamide dihydrochloride]
TT Ctt2 (concentration that doubles the coagulation time) (human plasma [1]): 0.05 µM | ACT Ctt2 (concentration that doubles the coagulation time) (human plasma [2]): 0.47 µM | IC50 (human thrombin): 1 nM | TT increase (maximal; number of times by which the initial time is increased) (dog plasma [3]): 14.2 times | ACT increase (maximal; number of times by which the initial time is increased) (dog plasma [4]): 2.0 times

Source: US6288077A, “2,3-methano-amino acid compounds” (Adir et Compagnie, priority 1999, dated 2001)
